Where “and” joins values, the source holds several entries; their conditions need not be identical. Equal values may be shown once. Numbers after ± are expanded uncertainties.
Assay: molar heat capacity at constant pressure
Conditions: 101.33 kPa, Crystal 2, Small (less than 1 g) adiabatic calorimetry

O=S(=O)([O-])[O-].[Sr+2] [sulfuric acid, strontium salt (1:1)]
Conditions | molar heat capacity at constant pressure
5 K | 0.03816 ± 0.021 J/K/mol
5.083 K | 0.04505 ± 0.021 J/K/mol
5.422 K | 0.04233 ± 0.021 J/K/mol
5.622 K | 0.05543 ± 0.021 J/K/mol
5.831 K | 0.05464 ± 0.021 J/K/mol
6.044 K | 0.06693 ± 0.021 J/K/mol
6.285 K | 0.07062 ± 0.021 J/K/mol
6.354 K | 0.08024 ± 0.021 J/K/mol
6.677 K | 0.09728 ± 0.022 J/K/mol
6.759 K | 0.1018 ± 0.022 J/K/mol
7.066 K | 0.1205 ± 0.022 J/K/mol
7.169 K | 0.1252 ± 0.022 J/K/mol
7.482 K | 0.1475 ± 0.023 J/K/mol
7.591 K | 0.1545 ± 0.023 J/K/mol
7.904 K | 0.1777 ± 0.023 J/K/mol
8.021 K | 0.1873 ± 0.023 J/K/mol
8.33 K | 0.2151 ± 0.024 J/K/mol
8.448 K | 0.2273 ± 0.024 J/K/mol
8.763 K | 0.2543 ± 0.024 J/K/mol
8.881 K | 0.2707 ± 0.025 J/K/mol
9.197 K | 0.3046 ± 0.025 J/K/mol
9.317 K | 0.3217 ± 0.025 J/K/mol
9.635 K | 0.3631 ± 0.026 J/K/mol
9.755 K | 0.3798 ± 0.026 J/K/mol
10 K | 0.4163 ± 0.027 J/K/mol
10.08 K | 0.427 ± 0.027 J/K/mol
10.2 K | 0.4451 ± 0.027 J/K/mol
10.75 K | 0.543 ± 0.029 J/K/mol
10.86 K | 0.5647 ± 0.029 J/K/mol
11.64 K | 0.7154 ± 0.031 J/K/mol
11.75 K | 0.7406 ± 0.032 J/K/mol
12.54 K | 0.9194 ± 0.034 J/K/mol
12.65 K | 0.9503 ± 0.035 J/K/mol
13.45 K | 1.16 ± 0.037 J/K/mol
13.55 K | 1.197 ± 0.038 J/K/mol
14.36 K | 1.446 ± 0.041 J/K/mol
14.47 K | 1.484 ± 0.042 J/K/mol
15 K | 1.665 ± 0.044 J/K/mol
15.29 K | 1.771 ± 0.045 J/K/mol
15.39 K | 1.813 ± 0.046 J/K/mol
16.22 K | 2.105 ± 0.049 J/K/mol
16.32 K | 2.148 ± 0.05 J/K/mol
17.16 K | 2.488 ± 0.053 J/K/mol
17.26 K | 2.531 ± 0.054 J/K/mol
18.1 K | 2.928 ± 0.058 J/K/mol
18.2 K | 2.96 ± 0.058 J/K/mol
19.05 K | 3.383 ± 0.063 J/K/mol
19.14 K | 3.432 ± 0.063 J/K/mol
20 K | 3.864 ± 0.067 J/K/mol
20.01 K | 3.84 ± 0.067 J/K/mol
20.1 K | 3.907 ± 0.068 J/K/mol
21.44 K | 4.638 ± 0.074 J/K/mol
21.53 K | 4.687 ± 0.074 J/K/mol
23.36 K | 5.734 ± 0.082 J/K/mol
23.44 K | 5.783 ± 0.082 J/K/mol
25 K | 6.782 ± 0.089 J/K/mol
25.3 K | 6.945 ± 0.09 J/K/mol
25.37 K | 6.99 ± 0.09 J/K/mol
27.25 K | 8.25 ± 0.096 J/K/mol
27.32 K | 8.313 ± 0.096 J/K/mol
29.2 K | 9.624 ± 0.1 J/K/mol
30 K | 10.21 ± 0.15 J/K/mol
30.75 K | 10.74 ± 0.15 J/K/mol
31.17 K | 11.03 ± 0.16 J/K/mol
32.62 K | 12.1 ± 0.16 J/K/mol
33.14 K | 12.44 ± 0.16 J/K/mol
34.6 K | 13.58 ± 0.17 J/K/mol
34.76 K | 13.71 ± 0.17 J/K/mol
35 K | 13.95 ± 0.17 J/K/mol
35.1 K | 13.99 ± 0.17 J/K/mol
36.58 K | 15.12 ± 0.18 J/K/mol
36.73 K | 15.23 ± 0.18 J/K/mol
37.07 K | 15.51 ± 0.18 J/K/mol
38.55 K | 16.71 ± 0.18 J/K/mol
38.7 K | 16.81 ± 0.18 J/K/mol
40 K | 17.87 ± 0.19 J/K/mol
40.53 K | 18.29 ± 0.19 J/K/mol
40.68 K | 18.39 ± 0.19 J/K/mol
42.52 K | 19.85 ± 0.2 J/K/mol
42.65 K | 19.96 ± 0.2 J/K/mol
44.51 K | 21.4 ± 0.21 J/K/mol
44.63 K | 21.49 ± 0.21 J/K/mol
45 K | 21.83 ± 0.21 J/K/mol
46.49 K | 22.95 ± 0.21 J/K/mol
46.61 K | 23 ± 0.21 J/K/mol
48.48 K | 24.46 ± 0.22 J/K/mol
48.59 K | 24.49 ± 0.22 J/K/mol
50 K | 25.73 ± 0.23 J/K/mol
50.48 K | 26 ± 0.23 J/K/mol
50.57 K | 26.02 ± 0.23 J/K/mol
52.46 K | 27.61 ± 0.24 J/K/mol
52.55 K | 27.61 ± 0.24 J/K/mol
54.45 K | 29.14 ± 0.25 J/K/mol
54.52 K | 29.14 ± 0.25 J/K/mol
55 K | 29.5 ± 0.25 J/K/mol
56.45 K | 30.48 ± 0.25 J/K/mol
56.51 K | 30.49 ± 0.25 J/K/mol
58.44 K | 31.73 ± 0.26 J/K/mol
58.49 K | 31.79 ± 0.26 J/K/mol
60 K | 33.05 ± 0.27 J/K/mol
60.44 K | 33.28 ± 0.27 J/K/mol
60.48 K | 33.28 ± 0.27 J/K/mol
62.43 K | 34.65 ± 0.27 J/K/mol
62.46 K | 34.66 ± 0.27 J/K/mol
64.42 K | 35.97 ± 0.28 J/K/mol
64.44 K | 35.9 ± 0.28 J/K/mol
65 K | 36.36 ± 0.28 J/K/mol
66.35 K | 37.12 ± 0.29 J/K/mol and 37.15 ± 0.29 J/K/mol
68.19 K | 38.26 ± 0.29 J/K/mol
68.21 K | 38.27 ± 0.29 J/K/mol
69.98 K | 39.31 ± 0.3 J/K/mol
70 K | 39.32 ± 0.3 J/K/mol and 39.45 ± 0.3 J/K/mol
72.35 K | 40.74 ± 0.3 J/K/mol
72.39 K | 40.75 ± 0.3 J/K/mol
75 K | 42.32 ± 0.31 J/K/mol
75.34 K | 42.37 ± 0.31 J/K/mol
75.41 K | 42.41 ± 0.31 J/K/mol
78.33 K | 43.98 ± 0.32 J/K/mol
78.44 K | 44.04 ± 0.32 J/K/mol
79.87 K | 44.73 ± 0.32 J/K/mol
80 K | 44.96 ± 0.33 J/K/mol
81.29 K | 45.47 ± 0.33 J/K/mol
81.33 K | 45.52 ± 0.33 J/K/mol
81.48 K | 45.58 ± 0.33 J/K/mol
83.56 K | 46.57 ± 0.33 J/K/mol
84.99 K | 47.25 ± 0.34 J/K/mol
85 K | 47.4 ± 0.34 J/K/mol
85.53 K | 47.51 ± 0.34 J/K/mol
85.54 K | 47.52 ± 0.34 J/K/mol
86.61 K | 48.03 ± 0.34 J/K/mol
88.05 K | 48.76 ± 0.34 J/K/mol
89.26 K | 49.19 ± 0.35 J/K/mol
89.28 K | 49.23 ± 0.35 J/K/mol
89.67 K | 49.42 ± 0.35 J/K/mol
90 K | 49.69 ± 0.4 J/K/mol
92.33 K | 50.55 ± 0.4 J/K/mol
92.35 K | 50.59 ± 0.4 J/K/mol
92.74 K | 50.75 ± 0.4 J/K/mol
95 K | 51.83 ± 0.41 J/K/mol
95.41 K | 51.85 ± 0.41 J/K/mol
95.43 K | 51.89 ± 0.41 J/K/mol
95.81 K | 52.06 ± 0.41 J/K/mol
98.5 K | 53.08 ± 0.41 J/K/mol
98.51 K | 53.12 ± 0.41 J/K/mol
98.89 K | 53.27 ± 0.41 J/K/mol
100 K | 53.84 ± 0.42 J/K/mol
101.59 K | 54.27 ± 0.42 J/K/mol
101.61 K | 54.31 ± 0.42 J/K/mol
101.98 K | 54.46 ± 0.42 J/K/mol
104.69 K | 55.44 ± 0.42 J/K/mol
104.71 K | 55.47 ± 0.42 J/K/mol
105.08 K | 55.61 ± 0.42 J/K/mol
107.8 K | 56.58 ± 0.43 J/K/mol
107.82 K | 56.6 ± 0.43 J/K/mol
108.19 K | 56.76 ± 0.43 J/K/mol
110 K | 57.52 ± 0.43 J/K/mol
110.92 K | 57.67 ± 0.43 J/K/mol
110.94 K | 57.74 ± 0.43 J/K/mol
111.31 K | 57.81 ± 0.43 J/K/mol
114.04 K | 58.72 ± 0.44 J/K/mol
114.06 K | 58.77 ± 0.44 J/K/mol
114.43 K | 58.88 ± 0.44 J/K/mol
117.18 K | 59.76 ± 0.44 J/K/mol
117.2 K | 59.81 ± 0.44 J/K/mol
117.56 K | 59.97 ± 0.44 J/K/mol
120 K | 60.88 ± 0.44 J/K/mol
120.32 K | 60.79 ± 0.44 J/K/mol
120.33 K | 60.87 ± 0.44 J/K/mol
120.71 K | 60.96 ± 0.44 J/K/mol
123.46 K | 61.8 ± 0.45 J/K/mol
123.49 K | 61.84 ± 0.45 J/K/mol
123.85 K | 61.96 ± 0.45 J/K/mol
126.62 K | 62.8 ± 0.45 J/K/mol
126.64 K | 62.83 ± 0.45 J/K/mol
127.01 K | 62.93 ± 0.45 J/K/mol
129.77 K | 63.78 ± 0.46 J/K/mol
129.8 K | 63.86 ± 0.46 J/K/mol
130 K | 64.04 ± 0.46 J/K/mol
130.19 K | 63.91 ± 0.46 J/K/mol
132.94 K | 64.72 ± 0.46 J/K/mol
132.97 K | 64.77 ± 0.46 J/K/mol
133.35 K | 64.93 ± 0.46 J/K/mol
136.13 K | 65.69 ± 0.46 J/K/mol
136.16 K | 65.79 ± 0.46 J/K/mol
136.53 K | 65.82 ± 0.46 J/K/mol
139.32 K | 66.68 ± 0.47 J/K/mol
139.35 K | 66.65 ± 0.47 J/K/mol
139.72 K | 66.8 ± 0.47 J/K/mol
140 K | 67.03 ± 0.47 J/K/mol
142.51 K | 67.53 ± 0.47 J/K/mol
142.54 K | 67.62 ± 0.47 J/K/mol
142.91 K | 67.65 ± 0.47 J/K/mol

Source: the NIST ThermoML archive (doi:10.1016/j.tca.2013.05.017)
